Assay results published in ChEMBL document CHEMBL3588760, “Inhibitors of melanogenesis in B16 melanoma 4A5 cells from flower buds of Lawsonia inermis (Henna)” (Bioorg Med Chem Lett, 2015).

How the values were obtained:
[1] = Cytotoxicity against mouse B16-4A5 cells assessed as cell viability at 100 uM after 70 hrs by WST-8 assay relative to control; type: cell-based; details: read-out: Activity
[2] = target: Plasminogen (Homo sapiens) (UniProt P00747); test: Inhibition of plasmin (unknown origin) at 100 uM after 18 hrs by arianor mahogany dye-based fibrin plate assay relative to control
Sequence of Plasminogen (Homo sapiens) (P00747 97-580 limits assumed): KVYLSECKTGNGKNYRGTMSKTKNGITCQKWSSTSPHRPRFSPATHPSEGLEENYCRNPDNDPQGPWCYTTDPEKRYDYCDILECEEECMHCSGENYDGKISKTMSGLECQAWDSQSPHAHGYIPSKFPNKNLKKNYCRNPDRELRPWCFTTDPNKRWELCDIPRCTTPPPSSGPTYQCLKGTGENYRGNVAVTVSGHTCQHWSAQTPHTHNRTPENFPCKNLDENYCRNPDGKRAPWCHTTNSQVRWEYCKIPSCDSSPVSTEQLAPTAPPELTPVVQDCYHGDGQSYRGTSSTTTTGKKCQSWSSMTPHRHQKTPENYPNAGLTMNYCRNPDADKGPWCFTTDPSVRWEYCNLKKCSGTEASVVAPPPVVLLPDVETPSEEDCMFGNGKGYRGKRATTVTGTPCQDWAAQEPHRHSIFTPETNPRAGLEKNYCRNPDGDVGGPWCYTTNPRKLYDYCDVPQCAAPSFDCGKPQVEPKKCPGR
Sequence of Plasminogen (Homo sapiens) (P00747 581-810 limits assumed): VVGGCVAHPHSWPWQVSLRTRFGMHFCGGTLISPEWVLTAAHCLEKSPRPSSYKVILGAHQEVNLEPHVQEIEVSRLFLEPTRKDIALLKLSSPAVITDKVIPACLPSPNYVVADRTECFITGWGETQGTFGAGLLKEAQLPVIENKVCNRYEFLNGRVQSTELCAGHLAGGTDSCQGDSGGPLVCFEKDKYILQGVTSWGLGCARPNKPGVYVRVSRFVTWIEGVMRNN

[3] = Inhibition of melanogenesis in theophylline-stimulated mouse B16-4A5 cells at 1 uM after 72 hrs by microplate reader analysis relative to control; type: functional; details: B16-4A5, 72 h
[4] = Inhibition of melanogenesis in theophylline-stimulated mouse B16-4A5 cells at 3 uM after 72 hrs by microplate reader analysis relative to control; type: functional; details: B16-4A5, 72 h
[5] = Inhibition of melanogenesis in theophylline-stimulated mouse B16-4A5 cells at 10 uM after 72 hrs by microplate reader analysis relative to control; type: functional; details: B16-4A5, 72 h
[6] = Inhibition of melanogenesis in theophylline-stimulated mouse B16-4A5 cells at 30 uM after 72 hrs by microplate reader analysis relative to control; type: functional; details: B16-4A5, 72 h
[7] = Inhibition of melanogenesis in theophylline-stimulated mouse B16-4A5 cells at 100 uM after 72 hrs by microplate reader analysis relative to control; type: functional; details: B16-4A5, 72 h
[8] = Cytotoxicity against mouse B16-4A5 cells assessed as cell viability at 1 uM after 70 hrs by WST-8 assay relative to control; type: cell-based; details: read-out: Activity
[9] = Cytotoxicity against mouse B16-4A5 cells assessed as cell viability at 3 uM after 70 hrs by WST-8 assay relative to control; type: cell-based; details: read-out: Activity
[10] = Cytotoxicity against mouse B16-4A5 cells assessed as cell viability at 10 uM after 70 hrs by WST-8 assay relative to control; type: cell-based; details: read-out: Activity
[11] = Cytotoxicity against mouse B16-4A5 cells assessed as cell viability at 30 uM after 70 hrs by WST-8 assay relative to control; type: cell-based; details: read-out: Activity
[12] = target: T1, Tyrosinase (Agaricus bisporus) (UniProt O42713); test: Inhibition of mushroom tyrosinase using L-DOPA as substrate assessed as dopaquinone production at 100 uM after 5 mins by microplate reader analysis relative to control
T1 sequence (whole entry): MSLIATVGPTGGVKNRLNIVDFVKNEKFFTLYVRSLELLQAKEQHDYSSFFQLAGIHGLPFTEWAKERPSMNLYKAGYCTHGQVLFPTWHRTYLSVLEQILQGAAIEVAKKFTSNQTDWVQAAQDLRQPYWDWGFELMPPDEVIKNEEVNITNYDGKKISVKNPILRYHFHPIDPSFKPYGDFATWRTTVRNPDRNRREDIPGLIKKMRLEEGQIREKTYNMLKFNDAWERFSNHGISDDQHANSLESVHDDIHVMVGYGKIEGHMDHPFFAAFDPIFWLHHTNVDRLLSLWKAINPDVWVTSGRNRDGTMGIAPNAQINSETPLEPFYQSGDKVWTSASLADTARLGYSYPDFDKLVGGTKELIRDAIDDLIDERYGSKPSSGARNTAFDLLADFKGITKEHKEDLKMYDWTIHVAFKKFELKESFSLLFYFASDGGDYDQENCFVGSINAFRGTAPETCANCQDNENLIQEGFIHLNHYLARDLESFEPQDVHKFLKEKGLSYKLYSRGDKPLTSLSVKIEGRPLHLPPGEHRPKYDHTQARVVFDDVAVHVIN

[13] = Downregulation of tyrosinase mRNA expression in theophylline-stimulated mouse B16-4A5 cells assessed as ratio of tyrosinase mRNA to beta-actin mRNA level at 3 uM after 72 hrs by qPCR analysis; type: functional, cell-based
[14] = Downregulation of tyrosinase mRNA expression in theophylline-stimulated mouse B16-4A5 cells assessed as ratio of tyrosinase mRNA to beta-actin mRNA level at 10 uM after 72 hrs by qPCR analysis; type: functional, cell-based
[15] = Downregulation of tyrosinase mRNA expression in theophylline-stimulated mouse B16-4A5 cells assessed as ratio of tyrosinase mRNA to beta-actin mRNA level at 30 uM after 72 hrs by qPCR analysis; type: functional, cell-based
[16] = Downregulation of TRP-1 mRNA expression in theophylline-stimulated mouse B16-4A5 cells assessed as ratio of TRP-1 mRNA to beta-actin mRNA level at 3 uM after 72 hrs by qPCR analysis; type: functional, cell-based
[17] = Downregulation of TRP-1 mRNA expression in theophylline-stimulated mouse B16-4A5 cells assessed as ratio of TRP-1 mRNA to beta-actin mRNA level at 10 uM after 72 hrs by qPCR analysis; type: functional, cell-based
[18] = Downregulation of TRP-1 mRNA expression in theophylline-stimulated mouse B16-4A5 cells assessed as ratio of TRP-1 mRNA to beta-actin mRNA level at 30 uM after 72 hrs by qPCR analysis; type: functional, cell-based
[19] = Downregulation of TRP-2 mRNA expression in theophylline-stimulated mouse B16-4A5 cells assessed as ratio of TRP-2 mRNA to beta-actin mRNA level at 3 uM after 72 hrs by qPCR analysis; type: functional, cell-based
[20] = Downregulation of TRP-2 mRNA expression in theophylline-stimulated mouse B16-4A5 cells assessed as ratio of TRP-2 mRNA to beta-actin mRNA level at 10 uM after 72 hrs by qPCR analysis; type: functional, cell-based
[21] = Downregulation of TRP-2 mRNA expression in theophylline-stimulated mouse B16-4A5 cells assessed as ratio of TRP-2 mRNA to beta-actin mRNA level at 30 uM after 72 hrs by qPCR analysis; type: functional, cell-based

SMILES: O=c1cc(-c2ccc(O)c(O)c2)oc2cc(O[C@@H]3O[C@H](CO)[C@@H](O)[C@H](O)[C@H]3O)cc(O)c12 [GALUTEOLIN]
- viability at 70 h, 100 µM [1]: 57.6%
- inhibition [2]: 61%
- inhibition at 1 µM [3]: 14.8%
- inhibition at 3 µM [4]: 14%
- inhibition at 10 µM [5]: 45.1%
- inhibition at 30 µM [6]: 11%
- inhibition at 100 µM [7]: 15.1%
- viability at 70 h, 1 µM [8]: 101%
- viability at 70 h, 3 µM [9]: 104%
- viability at 70 h, 10 µM [10]: 103%
- viability at 70 h, 30 µM [11]: 85.5%

SMILES: O=c1c(O[C@@H]2O[C@H](CO)[C@@H](O)[C@H](O)[C@H]2O)c(-c2ccc(O)c(O)c2)oc2cc(O)cc(O)c12 [ISOQUERCETIN]
- viability at 70 h, 100 µM [1]: 76.3%
- inhibition [12]: 5%
- inhibition [2]: -2.5%
- inhibition at 1 µM [3]: 16.7%
- inhibition at 3 µM [4]: 33.2%
- inhibition at 10 µM [5]: 20.7%
- inhibition at 30 µM [6]: 23.2%
- inhibition at 100 µM [7]: 20.7%
- viability at 70 h, 1 µM [8]: 99.8%
- viability at 70 h, 3 µM [9]: 100%
- viability at 70 h, 10 µM [10]: 95.4%
- viability at 70 h, 30 µM [11]: 87%

SMILES: O=c1cc(-c2ccc(O)c(O)c2)oc2cc(O)cc(O)c12 [LUTEOLIN]
- viability at 70 h, 100 µM [1]: 12.6%
- inhibition [12]: 33.5%
- Ratio [13]: 0.72
- Ratio [14]: 0.74
- Ratio [15]: 0.46
- Ratio [16]: 0.93
- Ratio [17]: 0.86
- Ratio [18]: 0.83
- Ratio [19]: 0.9
- Ratio [20]: 0.89
- Ratio [21]: 0.82
- inhibition [2]: 28.7%
- inhibition at 1 µM [3]: 6.2%
- inhibition at 3 µM [4]: 13.5%
- inhibition at 10 µM [5]: 38.1%
- inhibition at 30 µM [6]: 76.7%
- viability at 70 h, 1 µM [8]: 103%
- viability at 70 h, 3 µM [9]: 102%
- viability at 70 h, 10 µM [10]: 77.2%
- viability at 70 h, 30 µM [11]: 63.8%

SMILES: O=c1c(O)c(-c2ccc(O)c(O)c2)oc2cc(O)cc(O)c12 [QUERCETIN]
- Ratio [13]: 0.56
- Ratio [14]: 0.55
- Ratio [15]: 0.45
- Ratio [16]: 0.68
- Ratio [17]: 0.68
- Ratio [18]: 0.7
- Ratio [19]: 0.81
- Ratio [20]: 0.72
- Ratio [21]: 0.59
- inhibition [2]: 30.2%
- inhibition at 1 µM [3]: 13.9%
- inhibition at 3 µM [4]: 17.1%
- inhibition at 10 µM [5]: 34.3%
- inhibition at 30 µM [6]: 72.5%
- viability at 70 h, 1 µM [8]: 104%
- viability at 70 h, 3 µM [9]: 103%
- viability at 70 h, 10 µM [10]: 106%
- viability at 70 h, 30 µM [11]: 89.1%

SMILES: O=c1c(O)c(-c2ccc(O[C@@H]3O[C@H](CO)[C@@H](O)[C@H](O)[C@H]3O)c(O)c2)oc2cc(O)cc(O)c12 [SPIRAEOSIDE]
- viability at 70 h, 100 µM [1]: 74%
- inhibition [12]: 70.7%
- inhibition [2]: 51%
- inhibition at 1 µM [3]: 22.4%
- inhibition at 3 µM [4]: 24.4%
- inhibition at 10 µM [5]: 31.4%
- inhibition at 30 µM [6]: 34.7%
- inhibition at 100 µM [7]: 21.4%
- viability at 70 h, 1 µM [8]: 105%
- viability at 70 h, 3 µM [9]: 107%
- viability at 70 h, 10 µM [10]: 106%
- viability at 70 h, 30 µM [11]: 95.8%

SMILES: COc1ccc(-c2cc(=O)c3c(O)cc(O[C@@H]4O[C@H](CO)[C@@H](O)[C@H](O)[C@H]4O)cc3o2)cc1 [TILIANINE]
- inhibition [12]: 5.3%
- inhibition [2]: -8.1%
- inhibition at 1 µM [3]: -5.9%
- inhibition at 3 µM [4]: -1.1%
- inhibition at 10 µM [5]: -36.6%
- viability at 70 h, 1 µM [8]: 93.2%
- viability at 70 h, 3 µM [9]: 98.3%
- viability at 70 h, 10 µM [10]: 74.2%
